From patent US20020161007A1, “Non-steroidal modulators of estrogen receptors” (priority 2001, published 2002)

Key:
[1] = system: human breast tumor MCF-7 cell line; experiment: MTT antiproliferative assay on human MCF-7 cell line; assay type: cell-based; conditions: Homo sapiens, MCF7; MTT inhibition of proliferation, mean of triplicate determinations; read-out: IC50 Range
Description: EXAMPLE 14—Determination of the antiproliferative effects on human MCF-7 cell lines.
MTT is a yellow tetrazolium salt which is taken up only by metabolically active cells and subsequently cleaved by mitochondrial dehydrogenases to yield a purple crystalline formazan dye. On solubilisation this purple color may be read spectrophotometrically at 570 nm. The absorbance measured at this wavelength is directly proportional to the amount of viable cells present.
Procedure : The human breast tumor MCF-7 cell line was cultured in Eagles minimum essential medium in a 5% CO2 atmosphere with 10% fetal calf serum. The medium was supplemented with 1% non-essential amino acids. The cells were trypsinized and seeded at a density of 1.5×10^4 into a 96-well plate and incubated at 37° C., 5% CO2 atmosphere for 24 h. […] Control wells contained the equivalent volume of the vehicle ethanol (1% v/v). The culture medium was then removed and the cells washed with 100 μl PBS and 50 μl MTT added, to reach a final concentration of 1 mg/ml MTT added. The cells were incubated for 2 h in darkness at […]. At this point solubilisation was begun through the addition of 200 μl DMSO and the cells maintained at room temperature in darkness for 20 min to ensure thorough color diffusion before reading the absorbance. The absorbance value of control cells (no added compound) was set to 100% cell viability. Graphs of absorbance versus cell density per well were prepared to assess cell viability.

[2] = target: T1, estrogen receptor (Rattus norvegicus, UniProt P06211); experiment: Displacement of tritium-labelled estradiol from estrogen receptor-rich uterine cytosol; assay type: binding; conditions: mean ± SEM
T1 construct: Estrogen receptor-rich cytosol was obtained from the uteri; from tissue; host or cells: uterus of immature Sprague-Dawley rats (cytosol, 100,000 x g supernatant, DCC-treated)
T1 sequence (P06211 1-600): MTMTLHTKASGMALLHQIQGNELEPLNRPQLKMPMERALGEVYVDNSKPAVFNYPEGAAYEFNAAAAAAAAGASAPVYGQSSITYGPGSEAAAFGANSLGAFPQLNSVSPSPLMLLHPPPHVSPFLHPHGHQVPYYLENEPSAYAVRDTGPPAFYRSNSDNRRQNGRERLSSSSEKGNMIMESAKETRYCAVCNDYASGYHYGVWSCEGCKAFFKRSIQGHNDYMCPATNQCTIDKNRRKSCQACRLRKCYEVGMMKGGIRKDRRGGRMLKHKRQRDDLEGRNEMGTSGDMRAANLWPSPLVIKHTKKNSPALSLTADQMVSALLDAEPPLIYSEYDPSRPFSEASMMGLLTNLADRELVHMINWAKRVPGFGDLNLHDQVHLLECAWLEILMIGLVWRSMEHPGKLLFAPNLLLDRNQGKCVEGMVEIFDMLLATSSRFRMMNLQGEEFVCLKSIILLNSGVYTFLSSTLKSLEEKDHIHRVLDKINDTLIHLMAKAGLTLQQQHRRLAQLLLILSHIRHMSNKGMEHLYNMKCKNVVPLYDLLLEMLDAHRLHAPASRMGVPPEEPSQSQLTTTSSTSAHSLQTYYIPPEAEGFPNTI
Protocol: EXAMPLE 16—Determination of the binding affinity of compounds for estrogen receptor
Binding affinity (Ki value) for the estrogen receptor is measured by the ability of the compound to displace tritium-labelled estradiol from the receptor site.
Procedure Estrogen receptor-rich cytosol was obtained from the uteri of humanely sacrificed Sprague-Dawley immature rats (100-150 g mass). Briefly, the uteri were homogenized in 0.01 M sodium phosphate buffer, pH 7.3, containing 0.15 M NaCl, 0.1% gelatin and 0.01% sodium azide. The homogenate was then centrifuged at 100,000×g, […]. The cytosol thus isolated was pretreated with dextran coated charcoal (DCC on ice) and re-isolated using centrifugation, before freezing at−20° C. for later use. The protein concentration of cytosol samples was determined using a standard Bradford protein assay and an appropriate protein concentration range (150 μg protein in a total volume of 0.14 ml) for assay prepared. The required amounts of tritium-labeled (hot) and non-labeled (cold) estradiol were calculated using standard saturation curve techniques. A fresh buffer solution was prepared (Tris[tris(hydroxymethyl)-aminomethane]buffer-10 mM, pH 7.4, containing 1.5 mM EDTA and 3 mM sodium azide). Displacement testing of the compounds was facilitated through the incubation of a buffered solution of a known concentration of the test compound with hot estradiol solution (specific activity 157 Ci/mmol-final conc. 5 nM/ tube), followed by the addition of estrogen receptor-rich cytosol (150 μg protein). Total and non-specific binding control assays were determined in the absence and presence of 14 μl of a 0.2 mM cold estradiol solution respectively, properly corrected for the presence of ethanol in the test (displacement) samples. Samples were vortexed to ensure homogeneity and refrigerated at […] for 16-20 h. After this time the samples were retreated with DCC on ice and centrifuged for ten min at 3500×g. A 170 μl sample was pipetted from each vial and diluted with 10 ml scintillation fluid (Ecoscint). […] The samples thus prepared were counted for radioactivity by liquid scintillation counting. Binding values were obtained as counts per minute (cpm) and were converted to disintegrations per minute (dpm) and computationally analysed using sigmoidal curve fitting programs EBDA and LIGAND [14] to fit the displacement curves and to calculate binding affinity values (Ki) for the test compounds.
The following table illustrates the relative binding affinity values measured for selected compounds, based on their ability to displace radiolabelled estradiol from estrogen receptor-rich cytosol. Values are expressed as the mean determined±SEM.

[3] = system: MCF-7 cells; experiment: FACS (propidium iodide) assay for apoptotic induction in MCF-7 cells; assay type: cell-based, human; conditions: 50 μM, 16 hours
Protocol: EXAMPLE 17—Assay for determining apoptotic induction by compounds
Fluorescence Activated Cell Sorting
Procedure Following treatment of MCF-7 cells with apoptotic compounds, the cells were washed three times with PBS before being trypsinised and centrifuged at 300 g for 5 min. They were then resuspended in 200 μl PBS, made up to 2 ml with ice-cold ethanol (70% v/v) and left to sit on ice for at least 1 h to fix them. Approximately 1 h prior to use they were centrifuged at 300 g for 3 min and the supernatant carefully pipeted off. The pellet was resuspended in 800 μl PBS. RNAase (100 μL; 1mg/mL) and 100 μL of the fluorescent dye propidium iodide (PI; 400 μg/mL) which binds DNA were added. The tubes were vortexed and incubated at 37° C. for 30 min. Flow cytometry was performed with a FACS calibur flow cytometer from Becton Dickinson. FACS data was analysed using the programme Cell Quest.

Row | SMILES | IC50 [1] | Ki [2] | % Cell cycle phases G1 [3] | % Cell cycle phases G2/M [3] | % Cell cycle phases S [3] | % Cell cycle phases sub-G1 ([3]; sub-G1 apoptotic peak)
1 | CCC(Cc1ccccc1)=C(c1ccccc1)c1ccc(OCCN(C)C)cc1 (racemic) [Compound 1, 2-Benzyl-1-phenyl-1-[4-(dimethylaminoethoxy)phenyl]but-1-ene] | 10000 to 15000 nM | 459 ± 230 nM |  |  |  | 
2 | CCC(=C(Cc1ccccc1)c1ccccc1)c1ccc(OCCN2CCCCC2)cc1 [Compound 14, 1-Benzyl-1-phenyl-2-[(4-pipyridinylethoxy)phenyl]but-1-ene] | 15000 to 20000 nM | 2390 ± 350 nM |  |  |  | 
3 | CC/C(=C(\Cc1ccccc1)c1ccc(OCCN(C)C)cc1)c1ccccc1 [Compound 6, 1-Benzyl-2-phenyl-[(4-dimethyleaminoethoxy)phenyl]but-1-ene] | 20000 to 25000 nM | 503 ± 98 nM |  |  |  | 

Now from value to compound, other results behind:

Row | IC50 [1] | Ki [2] | SMILES | % Cell cycle phases G1 [3] | % Cell cycle phases G2/M [3] | % Cell cycle phases S [3] | % Cell cycle phases sub-G1 ([3]; sub-G1 apoptotic peak)
4 | 10 to 100 nM |  | CCC(Cc1ccccc1)=C(c1ccc(O)cc1)c1ccc(OCCN2CCCC2)cc1 [Compound 25, 4-{2-Benzyl-1-[4-(2-pyrrolidin-1-yl-ethoxy)-phenyl]-but-1-enyl}-phenol] | 51.3% | 21.0% | 7.6% | 20.1%
5 | 15000 to 20000 nM | 2480 ± 450 nM | CCC(=C(Cc1ccc(OCCN2CCOCC2)cc1)c1ccccc1)c1ccccc1 [Compound 20] |  |  |  | 
